Several values for one entry are separate records, joined by “and”; a condition that tells them apart may be missing. Equal values may be shown once. Toxic doses and inconclusive results are not listed. How the source made its calls: active means survival T/C of 150% or more; inactive means T/C below 125% in these data.
System: CD2F1 mice, L1210 leukemia ip, survival T/C
Assay: NCI In Vivo Anticancer Drug Screen. Data for tumor model L1210 Leukemia (intraperitoneal) in CD2F1 (CDF1) mice
Conditions: higher = longer survival
In short: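 Implant tumor; dose compound or vehicle; measure endpoint in both groups; report treated divided by control.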

[1] = endpoint: mean survival time, dose: 50.0 mg/kg/injection, schedule: Q01DX009 (ip), vehicle: saline with Tween-80
[2] = endpoint: mean survival time, dose: 100.0 mg/kg/injection, schedule: Q01DX009 (ip), vehicle: saline with Tween-80
[3] = endpoint: mean survival time, dose: 200.0 mg/kg/injection, schedule: Q01DX009 (ip), vehicle: saline with Tween-80
[4] = endpoint: mean survival time, dose: 100.0 mg/kg/injection, schedule: Q04DX003 (ip), vehicle: saline with Tween-80
[5] = endpoint: mean survival time, dose: 200.0 mg/kg/injection, schedule: Q04DX003 (ip), vehicle: saline with Tween-80
[6] = endpoint: mean survival time, dose: 400.0 mg/kg/injection, schedule: Q04DX003 (ip), vehicle: saline with Tween-80
[7] = endpoint: mean survival time, dose: 100.0 mg/kg/injection, schedule: Q01DX009 (ip), vehicle: Klucel (hydroxypropylcellulose) (HPC)
[8] = endpoint: mean survival time, dose: 100.0 mg/kg/injection, schedule: Q01DX001 (ip), vehicle: saline with Tween-80
[9] = endpoint: mean survival time, dose: 200.0 mg/kg/injection, schedule: Q01DX001 (ip), vehicle: saline with Tween-80
[10] = endpoint: mean survival time, dose: 400.0 mg/kg/injection, schedule: Q01DX001 (ip), vehicle: saline with Tween-80
[11] = endpoint: mean survival time, dose: 100.0 mg/kg/injection, schedule: Q01DX001 (ip), vehicle: carboxymethylcellulose (CMC)
[12] = endpoint: mean survival time, dose: 400.0 mg/kg/injection, schedule: Q01DX009 (ip), vehicle: saline with Tween-80

Measured: T/C

Cc1cc(C)c(CC=O)c(C)c1
inactive: endpoint: median survival time, dose: 25.0 mg/kg/injection, schedule: Q04DX002 (ip), vehicle: saline with Tween-80 100 % of control | endpoint: median survival time, dose: 50.0 mg/kg/injection, schedule: Q04DX002 (ip), vehicle: saline with Tween-80 100 % of control | endpoint: median survival time, dose: 100.0 mg/kg/injection, schedule: Q04DX002 (ip), vehicle: saline with Tween-80 100 % of control | endpoint: median survival time, dose: 200.0 mg/kg/injection, schedule: Q04DX002 (ip), vehicle: saline with Tween-80 100 % of control

COc1ccc(/C=N/NC(=O)CNC(=O)Nc2ccc(F)cc2)cc1OC
inactive: [1] 96 % of control | [2] 92 % of control | [3] 92 % of control

CCOC(=O)CCC[P+](c1ccccc1)(c1ccccc1)c1ccccc1
inactive: [4] 100 % of control | [5] 100 % of control | [6] 98 % of control

CCCCC(C(=O)OCC)C(=O)c1ccccc1 (stereo not drawn)
inactive: [4] 96 % of control | [5] 94 % of control | [6] 97 % of control

CCCC(NC(=O)CN)C(=O)O (stereo not drawn)
inactive: endpoint: mean survival time, dose: 100.0 mg/kg/injection, schedule: Q04DX003 (ip), vehicle: saline 100 % of control | endpoint: mean survival time, dose: 200.0 mg/kg/injection, schedule: Q04DX003 (ip), vehicle: saline 97 % of control | endpoint: mean survival time, dose: 400.0 mg/kg/injection, schedule: Q04DX003 (ip), vehicle: saline 102 % of control

O=C(OC(=O)c1cccc(-c2ccccc2)c1)c1cccc(-c2ccccc2)c1
inactive: [7] 109 % of control | endpoint: mean survival time, dose: 200.0 mg/kg/injection, schedule: Q01DX009 (ip), vehicle: Klucel (hydroxypropylcellulose) (HPC) 100 % of control | endpoint: mean survival time, dose: 400.0 mg/kg/injection, schedule: Q01DX009 (ip), vehicle: Klucel (hydroxypropylcellulose) (HPC) 97 % of control

CCOC(=O)c1c(C)nc(C)c(C(=O)OCC)c1-c1cccc([N+](=O)[O-])c1
inactive: endpoint: mean survival time, dose: 50.0 mg/kg/injection, schedule: Q04DX003 (ip), vehicle: saline with Tween-80 97 % of control | [4] 105 % of control | [5] 103 % of control

N=C(N)SCc1c(Cl)c(Cl)c(Cl)c(Cl)c1Cl
inactive: endpoint: mean survival time, dose: 25.0 mg/kg/injection, schedule: Q04DX002 (ip), vehicle: saline with Tween-80 103 % of control | endpoint: mean survival time, dose: 50.0 mg/kg/injection, schedule: Q04DX002 (ip), vehicle: saline with Tween-80 98 % of control | endpoint: mean survival time, dose: 100.0 mg/kg/injection, schedule: Q04DX002 (ip), vehicle: saline with Tween-80 98 % of control

COc1cc2c(cc1OC)C1CC(=O)CCN1CC2 (stereo not drawn)
inactive: endpoint: mean survival time, dose: 12.5 mg/kg/injection, schedule: Q01DX009 (ip), vehicle: Klucel (hydroxypropylcellulose) (HPC) 97 % of control and 104 % of control | endpoint: mean survival time, dose: 25.0 mg/kg/injection, schedule: Q01DX009 (ip), vehicle: Klucel (hydroxypropylcellulose) (HPC) 97 % of control and 98 % of control | endpoint: mean survival time, dose: 50.0 mg/kg/injection, schedule: Q01DX009 (ip), vehicle: Klucel (hydroxypropylcellulose) (HPC) 95 % of control and 98 % of control | [7] 97 % of control and 100 % of control | endpoint: median survival time, dose: 12.5 mg/kg/injection, schedule: Q01DX009 (ip), vehicle: Klucel (hydroxypropylcellulose) (HPC) 97 % of control | endpoint: median survival time, dose: 25.0 mg/kg/injection, schedule: Q01DX009 (ip), vehicle: Klucel (hydroxypropylcellulose) (HPC) 94 % of control | endpoint: median survival time, dose: 50.0 mg/kg/injection, schedule: Q01DX009 (ip), vehicle: Klucel (hydroxypropylcellulose) (HPC) 92 % of control | endpoint: median survival time, dose: 100.0 mg/kg/injection, schedule: Q01DX009 (ip), vehicle: Klucel (hydroxypropylcellulose) (HPC) 101 % of control

COC(=O)CCCC1CCC(=NNc2ccc([N+](=O)[O-])cc2[N+](=O)[O-])CC1 (stereo not drawn)
inactive: [4] 86 % of control | [5] 96 % of control | [6] 93 % of control

O=c1[nH]cnc2nc(C3OC(CO)C(O)C3O)[nH]c12 (stereo not drawn)
inactive: endpoint: median survival time, dose: 4.5 mg/kg/injection, schedule: Q01DX005 (ip), vehicle: distilled water + Tween-80 102 % of control | endpoint: median survival time, dose: 9.0 mg/kg/injection, schedule: Q01DX005 (ip), vehicle: distilled water + Tween-80 106 % of control | endpoint: median survival time, dose: 18.0 mg/kg/injection, schedule: Q01DX005 (ip), vehicle: distilled water + Tween-80 98 % of control | endpoint: median survival time, dose: 36.0 mg/kg/injection, schedule: Q01DX005 (ip), vehicle: distilled water + Tween-80 100 % of control | endpoint: median survival time, dose: 72.0 mg/kg/injection, schedule: Q01DX005 (ip), vehicle: distilled water + Tween-80 107 % of control

[N-]=[N+]=NCC1OC(OC2(CO)OC(CN=[N+]=[N-])C(O)C2O)C(O)C(O)C1O (stereo not drawn)
inactive: endpoint: mean survival time, dose: 50.0 mg/kg/injection, schedule: Q01DX009 (ip), vehicle: saline 102 % of control | endpoint: mean survival time, dose: 100.0 mg/kg/injection, schedule: Q01DX009 (ip), vehicle: saline 102 % of control

C=C(c1ccccc1)c1ccc(F)cc1
inactive: endpoint: mean survival time, dose: 100.0 mg/kg/injection, schedule: Q01DX009 (ip), vehicle: saline sonified 102 % of control | [4] 100 % of control | endpoint: mean survival time, dose: 200.0 mg/kg/injection, schedule: Q01DX009 (ip), vehicle: saline sonified 97 % of control | [5] 100 % of control | endpoint: mean survival time, dose: 400.0 mg/kg/injection, schedule: Q01DX009 (ip), vehicle: saline sonified 103 % of control | [6] 102 % of control

Nc1ncnc2c1c1cncnc1n2C1OC(CO)C(O)C1O (stereo not drawn)
inactive: endpoint: mean survival time, dose: 12.5 mg/kg/injection, schedule: Q01DX005 (ip), vehicle: distilled water + Tween-80 96 % of control | endpoint: mean survival time, dose: 25.0 mg/kg/injection, schedule: Q01DX005 (ip), vehicle: distilled water + Tween-80 98 % of control | endpoint: mean survival time, dose: 50.0 mg/kg/injection, schedule: Q01DX005 (ip), vehicle: distilled water + Tween-80 93 % of control | endpoint: mean survival time, dose: 100.0 mg/kg/injection, schedule: Q01DX005 (ip), vehicle: distilled water + Tween-80 90 % of control | endpoint: mean survival time, dose: 200.0 mg/kg/injection, schedule: Q01DX005 (ip), vehicle: distilled water + Tween-80 105 % of control | endpoint: mean survival time, dose: 400.0 mg/kg/injection, schedule: Q01DX005 (ip), vehicle: distilled water + Tween-80 110 % of control

O=[N+]([O-])c1ccc(O)c(N=Cc2ccccc2O)c1
inactive: endpoint: mean survival time, dose: 100.0 mg/kg/injection, schedule: Q04DX002 (ip), vehicle: Klucel (hydroxypropylcellulose) (HPC) 105 % of control | endpoint: mean survival time, dose: 200.0 mg/kg/injection, schedule: Q04DX002 (ip), vehicle: Klucel (hydroxypropylcellulose) (HPC) 97 % of control | endpoint: mean survival time, dose: 400.0 mg/kg/injection, schedule: Q04DX002 (ip), vehicle: Klucel (hydroxypropylcellulose) (HPC) 97 % of control

O=S(=O)(Nc1ccc(NS(=O)(=O)c2ccccc2)c(N2CCOCC2)c1)c1ccccc1
inactive: [8] 101 % of control | [9] 101 % of control | [10] 92 % of control

BrC1=CC2C3C=CC(c4ccccc43)C12 (stereo not drawn)
inactive: [4] 95 % of control | [5] 95 % of control | [6] 96 % of control

CN(C)C1c2ccccc2-c2ccc(F)cc21 (stereo not drawn)
inactive: endpoint: mean survival time, dose: 50.0 mg/kg/injection, schedule: Q01DX001 (ip), vehicle: carboxymethylcellulose (CMC) 107 % of control | [11] 113 % of control

CCOC(=O)Nc1cc(N)c2n[nH]nc2n1
inactive: [11] 100 % of control | endpoint: mean survival time, dose: 200.0 mg/kg/injection, schedule: Q01DX001 (ip), vehicle: carboxymethylcellulose (CMC) 98 % of control | endpoint: mean survival time, dose: 400.0 mg/kg/injection, schedule: Q01DX001 (ip), vehicle: carboxymethylcellulose (CMC) 102 % of control

O=C(CNC(=O)Nc1ccc(F)cc1)N/N=C/c1ccc(Cl)c(Cl)c1
inactive: [1] 96 % of control | [2] 96 % of control | [3] 100 % of control

CCN(CC)CCNc1cc2c3ccccc3ccc2c2ccccc12
inactive: [8] 88 % of control | [9] 95 % of control | [10] 100 % of control

O=C1C=C(Nc2ccc([N+](=O)[O-])cc2Cl)c2ccccc2C1=O
inactive: endpoint: mean survival time, dose: 75.0 mg/kg/injection, schedule: Q01DX001 (ip), vehicle: saline 100 % of control | endpoint: mean survival time, dose: 150.0 mg/kg/injection, schedule: Q01DX001 (ip), vehicle: saline 101 % of control | endpoint: mean survival time, dose: 300.0 mg/kg/injection, schedule: Q01DX001 (ip), vehicle: saline 112 % of control

CCN(CC)c1cccc(OC(=O)NC)c1
inactive: endpoint: mean survival time, dose: 5.0 mg/kg/injection, schedule: Q01DX001 (ip), vehicle: saline 102 % of control | endpoint: mean survival time, dose: 10.0 mg/kg/injection, schedule: Q01DX001 (ip), vehicle: saline 102 % of control | endpoint: mean survival time, dose: 20.0 mg/kg/injection, schedule: Q01DX001 (ip), vehicle: saline 102 % of control

CS/C(N)=N\C(=S)Nc1ccccc1
inactive: [2] 103 % of control | [3] 103 % of control | [12] 101 % of control

C=C1C(=O)OC2/C=C(\C)C3OC3/C=C(/C(=O)OC)C(O)C(OC(=O)C3(C)OC3C)C12 (stereo not drawn)
inactive: [8] 104 % of control

Oc1ccc(C(c2ccccc2)(c2ccccc2)c2ccccc2)cc1
inactive: [2] 94 % of control | [3] 89 % of control | [12] 91 % of control

— PubChem BioAssay AID256 (DTP/NCI, 2004)
